In patent US10058688B2 (Massachusetts Institute of Technology, priority 2012, dated 2018):
Where two headings read alike, the source gives them in different places.

What was measured:
[1] = system: SKOV3 cells; experiment: In vitro cytotoxicity study; format: cell-based, human; details: 0.1 μg/mL over a period of 7 days, FIG. 5
Description: RPMI 1640 with 20% fetal bovine serum (FBS) was used for culturing A2780 and OVCAR3, and McCoy's 5a cell growth media with 10% FBS was used for SKOV3 propagation. The cells were seeded in 96-well plates at 10^4 cells/well. […] The percentage cell viability was calculated as a percentage of the untreated group at each time point.

[2] = system: SKOV3 cells; details: for 2 hours; Royer et al.; used as positive control; cited from earlier work
[3] = system: ovarian cancer; details: cited from earlier work
[4] = system: SKOV3 luciferase-positive cells; experiment: Treatment efficacy study; format: in vivo, nu/nu mice
Source text: The nu/nu mice were inoculated with tumor cells on Day 0 and treatment was started on Day 14. […] The devices were sterilized with ethylene oxide prior to implantation. All animal care guidelines as listed in the animal protocol were followed. The animals were imaged 2 times a week, similar to the tumor induction study. The animals in the toxicity study were sacrificed on day 56 and their organs (kidney, liver, spleen, intestines and bone) were removed immediately upon euthanasia to be fixed in 10% formalin overnight.

[5] = system: OVCAR-3 ovarian tumor cell line; details: cited from earlier work
[6] = DrugBank, DB01229; cited from earlier work

In the case of `N.N.[Cl][Pt][Cl]` [cisplatin], the “killing of tumor cells at 0.1 μg/mL” value [1] is listed as “too low to kill tumor cells”, the “critical condition to kill ovarian tumor cells (concentration)” value [2] is listed as 10 µg/mL and the “subjects who completed all cycles of therapy” value ([3]; IP therapy) is listed as 42%. For the same compound, the overall survival ([3]; IP treatment, p=0.03) was 65.6 months, the “subjects who completed all cycles of therapy” value ([3]; IV therapy) was 83% and the overall survival ([3]; IV treatment) was 49.7 months. The tumor size ([4]; IP bolus injection (10 mg/kg), 1 dose per week) was “remained relatively small” and the tumor mass ([4]; device or IP bolus 5 mg/kg 1x/wk from Day 14, vs untreated, FIG. 8) was “significant tumor mass reduction”.

For `CC(=O)O[C@H]1C(=O)[C@@]2(C)[C@H]([C@H](OC(=O)c3ccccc3)[C@]3(O)C[C@H](OC(=O)[C@H](O)[C@@H](NC(=O)c4ccccc4)c4ccccc4)C(C)=C1C3(C)C)[C@]1(OC(C)=O)CO[C@@H]1C[C@@H]2O` [paclitaxel], the median survival ([5]; 10 mg/kg dose) is given as 60 days, the median survival ([5]; 40 mg/kg) is given as “about 70 days” and the “log P” value [6] is given as “about 3.5”.
